Assay results published in US20250204528A1, “USE OF 2-AMINO-3-INDOLYL BUTYRIC ACID OR 3-METHYLPYRROLIDINE-2-CARBOXYLIC ACID AS PLANT IMMUNITY ELICITOR” (NANJING TIANNONG BIOTECHNOLOGY CO., LTD, priority 2021, published 2025).
Several values for one entry are separate records, joined by “and”; a condition that tells them apart may be missing. Identical values can stand only once.

Legend:
Assay type in all cases: in vivo
[1] = system: tea trees (Baiye 1 cutting seedlings); test: Tea tree under low temperature stress; conditions: for Cold damage index (%): 24 h at −4° C., recovery 3 d; for PIABS: after 24 h at −4° C.; for Cold damage index reduced by / PIABS of the tea leaves improved by: vs control
Description: The test tea trees were Baiye 1 cutting seedlings.
The tea seedlings with consistent growth vigor were selected to be transplanted into a plastic pot with the diameter of 18 cm and placed in a greenhouse at 25° C. and with the humidity of 60%-70% to be adapted for growing for about one week for the experiment. Concentrations at 0 nm, 1 nm, 10 nm, 100 nm and 1,000 nm were set in the experiment. Meanwhile, 0.02% Tween 20 was added as a surfactant. The spraying treatment was the same as that of the ryegrass in example 1. A low temperature stress was performed for 24 h at −4° C. The tea seedlings after the stress was finished were taken out and subjected to a dark treatment at normal temperature for 30 min. The chlorophyll fluorescences of leaves at the tops of the tea seedlings were measured by using the plant efficiency Handy-PEA. Then the tea seedlings were placed in the greenhouse at 25° C. for recovery for 3 d. The cold damage conditions were observed, counted and graded. The cold damage index counting and grading standard was shown in table 13 and a calculation formula was as follows.

ryegrass = test: Ryegrass under high temperature stress; parameters: Heat damage index: scale not given here; conditions: for Heat damage index: 45° C. 12 h, recovery 7 d; for Heat damage index of the ryegrass decreased: vs control group
Description: 2-amino-3-indolyl butyric acid was dissolved in distilled water and gradiently diluted with distilled water to obtain solutions of 1 nm, 10 nm, 100 nm and 1,000 nm. A blank control was additionally set. Meanwhile, 0.02% Tween 20 was added as a surfactant. Each concentration was set to 4 replicates while a room temperature blank control was set. Ryegrass seeds were weighed at 0.8 g per pot, sown in a pot with the diameter of 8.5 cm and planted in a greenhouse at 25° C. with the humidity of 60%-70% and the light intensity of 200 μmolm^−2s^−1 (12 h light/12 h dark). After 7 d of growth, the ryegrass was treated by spraying the 2-amino-3-indolyl butyric acid solution on the leaf surfaces twice for 24 h. 24 h after the second spraying, the ryegrass was transferred to an illumination incubator at 45° C. for a high temperature stress treatment for 12 h. The plants were taken out and transferred to the greenhouse at 25° C. for recovery for 7 d. The damage conditions of the plants were observed and counted, and the heat damage grades were calculated. The heat damage grading standard was shown in table 8 and a calculation formula of the heat damage index was as follows.

[2] = system: Pseudomonas syringae PstDC3000; test: Induction of Arabidopsis thaliana against infection by Pseudomonas syringae; conditions: for Disease index reduced by / Number of the bacteria in each milligram of the leaves reduced by: compared with blank control; for CFU (mg), number of bacteria in each milligram of the leaves / Disease index: 3 d after inoculation
Description: 2-amino-3-indolyl butyric acid was dissolved in sterile water and gradiently diluted with sterile water to obtain solutions of 100 nm, 1,000 nm and 10,000 nm. A blank control was additionally set. Meanwhile, 0.02% Tween 20 was added as a surfactant. Pseudomonas syringae PstDC3000 was coated on an LB plate and cultured at 28° C. for 48 h; monoclonal colonies were selected, inoculated into a 50-mL centrifuge tube containing 2 mL of a culture medium, and cultured on a shaking table at 28° C. and 250 rpm, the change of an OD600 value of the bacterial liquid was monitored every 1-2 h, and the culture of the bacteria was stopped before the OD600 value reached 0.8; 1 mL of the bacterial liquid was transferred to a sterile 1.5-mL centrifuge tube for centrifuging at 8,000 rpm for 2 min and the precipitate was collected; the supernatant was removed, the precipitate was washed 3 times with 10 mM of magnesium chloride and centrifuged, and finally the PstDC3000 was resuspended in 10 mM of magnesium chloride enable the OD600 value to reach […] for late use. Arabidopsis thaliana seeds were soaked in 75% alcohol for 3 min, washed with sterile water for 4 times and seeded in a culture dish containing ½ MS culture medium with 12 seeds sown on each culture dish. The ½ MS culture dish carrying the seeds were vernalized at 4° C. for 3 d to break dormancy and then placed in a culture room at 22° C. and the illumination intensity of 100 μEm^−2s^−1 (16 h light/8 h dark). When the seedlings grew for 2 weeks, 2-amino-3-indolyl butyric acid at different concentrations were slowly poured into the culture dish until the whole Arabidopsis thaliana seedlings were submerged for 2-3 min, then the treatment solution was completely poured from the culture dish, and the treatment was performed once every other 24 h for a total of 2 times. The PstDC3000 suspension (OD600=0.01) was inoculated to the Arabidopsis thaliana leaves by using the same submerging method 24 h after the 2nd treatment, and then the culture dish was sealed by a medical breathable adhesive plaster after the inoculation and placed in the culture room for continuous culture. After 3 d, the number of the bacteria subjected to different treatments was determined, the disease condition of the Arabidopsis thaliana was observed, and the disease indexes were calculated by using the same calculation formula as that in example 2.
Grading standard of diseases caused by PstDC3000 (taking leaves as units): • grade 0: the leaf surfaces were free of disease spots; • grade 1: the area of the disease spots accounted for 0%-10% of that of the whole leaves; • grade 2: the area of the disease spots accounted for 10%-25% of that of the whole leaves; • grade 3: the area of the disease spots accounted for 25%-50% of that of the whole leaves; • grade 4: the area of the disease spots accounted for 50%-75% of that of the whole leaves; and • grade 5: the area of the disease spots accounted for 75%-100% of that of the whole leaves.

[3] = treatment concentration 1,000 nm
[4] = treatment concentration 10,000 nm

Row | SMILES | Cold damage index (%) ([1]; 1 nm) | PIABS ([1]; 1 nm) | Cold damage index (%) ([1]; 10 nm) | PIABS ([1]; 10 nm) [c] | Cold damage index (%) ([1]; 100 nm) | PIABS ([1]; 100 nm) | Cold damage index (%) ([1]; 1,000 nm) | PIABS ([1]; 1,000 nm) [a] | Cold damage index reduced by ([1]; 1,000 nm) [%] | PIABS of the tea leaves improved by ([1]; 1,000 nm) [%] | Heat damage index (ryegrass; 1 nm) | Heat damage index (ryegrass; 10 nm) | Heat damage index (ryegrass; 100 nm) | Heat damage index (ryegrass; 1,000 nm) | Heat damage index of the ryegrass decreased (ryegrass; 1,000 nm) [%] | Disease index reduced by ([2]; 100 nm) [%] | Number of the bacteria in each milligram of the leaves reduced by ([2]; 100 nm) [%] | Disease index reduced by ([2]; 1,000 nm) [%] | Number of the bacteria in each milligram of the leaves reduced by ([2]; 1,000 nm) [%] | Disease index reduced by ([2]; 10,000 nm) [%] | other results
1 | CC(c1c[nH]c2ccccc12)C(N)C(=O)O (stereo not shown) | 52 | 26.3 ± 0.04 | 45 | 30.10 ± 1.70 | 35 | 36.51 ± 3.14ab | 28 | 39.36 ± 2.15 | 40 | 52 | 61 | 57 | 43 | 25 | 65 | 51.25 | 76.75 | 53.92 | 80.97 | 64.42 | Number of the bacteria in each milligram of the leaves reduced by ([2]; 10,000 nm): 85.039% and 85.03%; CFU (mg), number of bacteria in each milligram of the leaves ([2]; treatment concentration 100 nm): 7.44 × 10^5 CFU (mg); Disease index ([2]; treatment concentration 100 nm): 40.53 ± 1.95b; CFU (mg), number of bacteria in each milligram of the leaves [2, 3]: 6.09 × 10^5 CFU (mg); Disease index [2, 3]: 38.31 ± 1.80b; CFU (mg), number of bacteria in each milligram of the leaves [2, 4]: 4.79×10^5 CFU (mg)
2 | CC1CCNC1C(=O)O (stereo not shown) [3-methylpyrrolidine-2-carboxylic acid] | 47 | 23.01 ± 0.02 | 43 | 29.65 ± 1.81 | 34 | 35.01 ± 0.27b | 27 | 41.07 ± 0.31 | 48 | 138 | 57 | 50 | 38 | 20 | 68 | 41.13 | 70.78 | 52.47 | 80.90 | 72.69 | Number of the bacteria in each milligram of the leaves reduced by ([2]; 10,000 nm): 94.92% and 94.90%; CFU (mg), number of bacteria in each milligram of the leaves ([2]; treatment concentration 100 nm): 9.41 × 10^5 CFU (mg); Disease index ([2]; treatment concentration 100 nm): 50.14 ± 1.54b; CFU (mg), number of bacteria in each milligram of the leaves [2, 3]: 6.15 × 10^5 CFU (mg); Disease index [2, 3]: 40.48 ± 0.17c; CFU (mg), number of bacteria in each milligram of the leaves [2, 4]: 1.64×10^5 CFU (mg)
